What was measured:
[1] = system: premenstrual dysphoric disorder (PDD); assay: Clinical case treatment of a patient with premenstrual dysphoric disorder; type: in vivo, human
Experimental: A patient with no insomnia symptom was diagnosed with premenstrual dysphoric disorder (PDD) with symptoms of persistent hopelessness, sadness, anxiety and frequent tearfulness on the first clinic visit and was provided with fluoxetine 40 mg for 3 weeks. […] Then the patient was prescribed with the combination of ebastine (20 mg) and alprazolam (2 mg) for 2 weeks.

[2] = system: major depressive disorder (MDD); assay: Clinical case treatment of patients with major depressive disorder; type: in vivo, human; details: for outcome of previous treatments of MDD symptoms: Example 4, person; for outcome of previous anti-depressant treatment of MDD: Example 2, person; for outcome of previous treatments of MDD symptoms / outcome of previous anti-depressant treatment of MDD: previous treatments; for improvement of MDD: alprazolam 5 mg for 2 weeks
Experimental: A patient having no insomnia symptom was diagnosed with major depressive disorder (MDD) showing persistent sadness, loneliness, helpless, and hapless. […] Then they were prescribed with a combination of ebastine (30 mg) and alprazolam (5 mg) for 4 weeks.
A patient with no insomnia symptom was diagnosed with major depressive disorder (MDD) with persistent sadness, lack of interest, and feeling lonely. […] Then they were treated with a combination of ebastine (30 mg) and alprazolam (0.5 mg) for 4 weeks from the second clinic visits.

[3] = system: mild chronic depression (MCD); assay: Clinical case treatment of a patient with mild chronic depression; type: in vivo, human; details: Example 3
Experimental: The patient was prescribed with ebastine 30 mg for 3 weeks from the first clinic visit. […] Then they were prescribed with a combination of ebastine (10 mg) and alprazolam (0.5 mg) for a 4-week treatment.

[4] = system: release of prostaglandin D2 (PGD2) and leukotrienes C4/D4 (LTC4/D4); details: background statement; cited from earlier work
[5] = system: allergic rhinitis; assay: Clinical case treatment of allergic rhinitis; type: in vivo, human; details: Example 3, person; ebastine 30 mg for 3 weeks
Experimental: A patient with no insomnia symptom was having allergic rhinitis with itchy nose, mouth and eyes, frequent sneezing, watery eyes and coughing, and runny nose when they were diagnosed with mild chronic depression (MCD) but showing symptoms of sadness, lack of interest, loneliness and helpless, consistent frustration for 4 weeks with failed treatment history of allergic rhinitis. The patient was prescribed with ebastine 30 mg for 3 weeks from the first clinic visit. […] But their symptoms from MCD were persistent. […] Then they were prescribed with a combination of ebastine (10 mg) and alprazolam (0.5 mg) for a 4-week treatment.

[6] = system: release of cytokines (GM-CSF, tumour necrosis factor-a, interleukin-8); details: background statement; cited from earlier work
[7] = system: generalized anxiety disorder (GAD); assay: Clinical case treatment of patients with generalized anxiety disorder; type: in vivo, human; details: for improvement of GAD reported by patient: Example 1, person
Experimental: A patient was diagnosed with generalized anxiety disorder (GAD) and they had no complaints of having insomnia. […] Then they were treated with the combination of ebastine (20 mg) and alprazolam (1 mg) for 2 weeks. […] The inventors believe the composition of two mechanisms of actions provided a new solution for treating their GAD which could not be treated with alprazolam and the like alone.
A patient with no insomnia symptom order was diagnosed with GAD. The patient was treated with alprazolam (2 mg) for 2 weeks from their first clinic visit and alprazolam (4 mg) for 2 weeks from their second clinic visit. […] On the third clinic visit, the patient was prescribed with the combination of ebastine (10 mg) and alprazolam (4 mg). […] The inventors believe that the two compositions of two mechanisms of actions provided a new solution for treating their […] which could not be treated with other options.

[8] = system: REM sleep; details: background studies; cited from earlier work

CNCCC(Oc1ccc(C(F)(F)F)cc1)c1ccccc1 (centres unmarked) [fluoxetine]
improvement of PDD symptoms ([1]; Example 6, person, fluoxetine 40 mg for 3 weeks): no improvement
outcome of previous treatments of MDD symptoms [2]: failed to improve

CNCC[C@H](Oc1cccc2ccccc12)c1cccs1 [duloxetine]
outcome of previous anti-depressant treatment of MDD [2]: failed

CC(NC(C)(C)C)C(=O)c1cccc(Cl)c1 (centres unmarked) [bupropion]
outcome of previous anti-depressant treatment of MDD [2]: failed
outcome of previous treatments of MDD symptoms [2]: failed to improve

CC(C)(C)c1ccc(C(=O)CCCN2CCC(OC(c3ccccc3)c3ccccc3)CC2)cc1 [ebastine, 4-diphenylmethoxy-1-[3-(4-tert-butylbenzoyl)-propyl]piperidine]
symptoms from MCD ([3]; ebastine 30 mg for 3 weeks): persistent
anti-IgE-induced release of prostaglandin D2 (PGD2) and leukotrienes C4/D4 (LTC4/D4) [4]: significantly inhibits
recovery from allergic rhinitis [5]: complete recovery
release of cytokines, including GM-CSF, tumour necrosis factor-a and interleukin-8 [6]: inhibited

Cc1nnc2n1-c1ccc(Cl)cc1C(c1ccccc1)=NC2 [alprazolam, 8-chloro-1-methyl-6-phenyl-4H-s-triazolo[4,3-a][1,4]benzodiazepine]
improvement of MCD symptoms ([3]; alprazolam 1 mg for 3 weeks): no improvement
improvement of GAD reported by patient ([7]; alprazolam 0.5 mg for 2 weeks): no improvement
improvement of GAD reported by patient ([7]; alprazolam 2 mg for 2 weeks): no improvement
improvement of GAD symptoms (anxiety, agitation, sweating, nausea, headaches) ([7]; Example 5, person, alprazolam (2 mg) for 2 weeks): failed to improve
improvement of GAD symptoms (anxiety, agitation, sweating, nausea, headaches) ([7]; Example 5, alprazolam (4 mg) for 2 weeks): failed to improve
improvement of PDD symptoms ([1]; Example 6, alprazolam (2 mg) for 2 weeks): failed to improve
improvement of MDD ([2]; Example 2): no improvement
improvement of MDD ([2]; Example 4): 20%
REM latency [8]: increases
length of REM periods and frequency of REM burst activities [8]: significantly decreases

CC(C)(C(=O)O)c1ccc(C(=O)CCCN2CCC(OC(c3ccccc3)c3ccccc3)CC2)cc1 [carebastine]
release of PGD2 [4]: inhibits

— patent US12370198B2, “Pharmaceutical compositions and methods for treating psychiatric disorders” (LA PHARMATECH INC., priority 2022, dated 2025)
